Measurements from paper PMC5454942, “The Potential of Triterpenoids from Loquat Leaves (Eriobotrya japonica) for Prevention and Treatment of Skin Disorder” (International Journal of Molecular Sciences, 2017).
Values after ≈ are worked out from the molar mass of the structure shown. Values joined by “and” are separate entries in the source; they are usually repeats but may differ in a detail not shown here. Identical values can stand only once. Like-named read-outs stand apart in the source and are kept apart here.

Assays:
[1] = Cell viability of RBL-2H3 cells (parallel MTT); type: cell-based, rat; conditions: rat; 25 μg/ml, RBL-2H3 cells; read-out: Cell viability
Summary of the method: (§1)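 IgE-sensitized RBL-2H3 cells (0.5 μg/mL anti-DNP IgE, 24 h) treated with sample 30 min in Tyrode buffer, then challenged 1 h with 50 μg/mL DNP-BSA. Released β-hexosaminidase measured with 2 mM p-nitrophenyl-N-acetyl-β-glucosaminide, 3 h, A405; viability by parallel MTT.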

[2] = test system: Epstein–Barr virus early antigen; design: method as in PMID 16204964, PMID 14745168; conditions: cited from earlier work
[3] = test system: inflammation induced by 12-O-tetradecanoylphorbol-13-acetate (TPA); design: method as in PMID 16204964, PMID 14745168; conditions: mice; cited from earlier work
mushroom tyrosinase = test: Tyrosinase inhibition assay; type: biochemical; conditions: for inhibitory effect on tyrosinase (in words): L-DOPA as substrate; for inhibitory activity on tyrosinase (in words): L-tyrosine as substrate, relatively high concentrations
Protocol: Tyrosinase inhibition activity was evaluated by using L-tyrosine and L-DOPA as substrates, as described. Briefly, 333 μL of 2.5 mM L-tyrosine or L-DOPA solution (Sigma-Aldrich) was mixed with 600 μL of 0.1 M phosphate buffer (pH 6.8) and incubated at 25 °C. Then, 33 μL of the sample solution (dissolved in DMSO in various concentrations) and 33 μL of 1380 units/mL mushroom tyrosinase (Sigma-Aldrich) were added to the mixture. The optical density was measured at 475 nm up to the appropriate time. Kojic acid (Sigma-Aldrich) was used as the positive control; the final concentration is 3.3 μg/mL.

B16 melanoma cells [4] = test: Anti-melanogenesis assay (melanin content); type: cell-based, mouse; conditions: for inhibition at 1 µg/mL: 1 μg/ml; for inhibition at 2.5 µg/mL: 2.5 μg/ml; for IC50 / S.I (selectivity index, CC50 value/IC50 value): B16 melanoma cells; for inhibition at 5 µg/mL: 5 μg/ml; for inhibition at 10 µg/mL: 10 μg/ml
Summary of the method: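 B16 cells treated with samples in DMSO (<0.2%) for 48 h, then re-dosed in fresh medium for a further 24 h; arbutin served as positive control. Melanin content read at 405 nm and viability by MTT at 570 nm.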

RBL-2H3 cells = test: β-hexosaminidase release from IgE-stimulated RBL-2H3 mast cells; type: cell-based, rat
Summary of the method: as §1

NHDF-Ad cells = test: Hyaluronic acid production assay (ELISA, with MTT); type: cell-based, human; conditions: fold of control
Protocol: NHDF-Ad cells were seeded on 96-well plates (5 × 10^3 cells/well) for 24 h before the treatment. The medium was replaced with a mixture of 1 μL of sample solution (DMSO < 0.5% per well) and 99 μL of DMEM supplemented with 0.5% FBS. After 72 h cultivation, the amount of hyaluronic acid in the medium was measured using a QnE Hyaluronic acid ELISA kit (Biotech Trading Partners, Encinitas, CA, USA). The amount of hyaluronic acid production was quantitatively calculated from the standard curve. Cell viability was measured by the MTT method, and ascorbic acid was used as a positive control.

Propionibacterium acnes = test: Anti-bacterial assay (growth inhibition, MIC/MBC by broth microdilution); type: cell-based; conditions: for MBC / MIC / inhibition at 100 µg/mL: Cutibacterium acnes; for inhibition at 100 µg/mL: read-out: Inhibition Rate (P. acnes growth); for activity against P. acnes (in words): at their maximum solubility
Summary of the method: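 P. acnes NBRC 107605 grown in GAM broth 30 h at 37 °C, then used at 10^5 CFU/mL. Compounds in DMSO incubated with bacteria 30 h at 37 °C; growth read at 630 nm. MIC and MBC by broth microdilution.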

[5] = Cell viability of B16 melanoma cells (MTT); conditions: mouse
B16 melanoma cells [6] = test: Cell viability of B16 melanoma cells (MTT); conditions: B16 cells
[7] = Mus musculus, B16 cells, read-out: Inhibition rate (100% − melanin synthesis)
[8] = Mus musculus, read-out: IC50 (melanin synthesis)
[9] = Mus musculus, read-out: IC50 melanin
[10] = Rattus norvegicus, RBL-2H3, 25 μg/mL, read-out: Inhibition Rate (β-hexosaminidase release)
[11] = P. acnes, broth microdilution, read-out: MBC
[12] = P. acnes, broth microdilution, read-out: MIC
[13] = Rattus norvegicus, RBL-2H3, read-out: Inhibition Rate (β-hexosaminidase release)

Compound: C[C@H]1[C@H](C)CC[C@]2(C(=O)O)CC[C@]3(C)C(=CC[C@@H]4[C@@]5(C)CC[C@H](O)C(C)(C)[C@@H]5CC[C@]43C)[C@H]12 [Compound 1, Ursolic acid]
- viability at 25 μg/ml [1]: 103 ± 5.3%
- inhibitory activity against TPA-induced Epstein–Barr virus early antigen activation (in words) [2]: significant inhibitory activity
- inhibitory activity against TPA-induced inflammation (in words) [3]: significant inhibitory activity
- inhibitory effect on tyrosinase (in words) (mushroom tyrosinase): no inhibitory effect
- inhibitory activity on tyrosinase (in words) (mushroom tyrosinase): moderate inhibitory activity
- inhibition at 0.5 µg/mL (B16 melanoma cells [4]; Mus musculus, 0.5 μg/ml, B16 cells, read-out: Inhibition rate (100% − melanin synthesis)): 4.2 ± 1.7%
- inhibition at 1 µg/mL (B16 melanoma cells [4]; [7]): 24 ± 0.8%
- inhibition at 2.5 µg/mL (B16 melanoma cells [4]; [7]): 58.5 ± 3.2%
- IC50 (B16 melanoma cells [4]; [8]): 4.8 µM
- IC50 (B16 melanoma cells [4]; [9]): 2.2 µg/mL
- inhibition at 5 µg/mL (RBL-2H3 cells; Rattus norvegicus, RBL-2H3, 5 μg/mL, read-out: Inhibition Rate (β-hexosaminidase release)): 0%
- inhibition at 12.5 µg/mL (RBL-2H3 cells; Rattus norvegicus, RBL-2H3, 12.5 μg/mL, read-out: Inhibition Rate (β-hexosaminidase release)): 37.6 ± 3%
- inhibition at 25 µg/mL (RBL-2H3 cells; [10]): 72.5 ± 3%
- IC50 (RBL-2H3 cells; Rattus norvegicus, IgE-stimulated RBL-2H3 cells, read-out: IC50 (β-hexosaminidase release)): 39.5 µM
- HA/CV value (hyaluronic acid %/cell viability %) (NHDF-Ad cells; 5 μg/mL): 4.7
- MBC (Propionibacterium acnes; [11]): 100 µg/mL (≈ 219 µM)
- MIC (Propionibacterium acnes; [12]): 50 µg/mL (≈ 109 µM)
- inhibition at 100 µg/mL (Propionibacterium acnes; concentration 100 μg/mL): 109.8 ± 0.5%
- activity against P. acnes (in words) (Propionibacterium acnes): active
- CC50 at 72 h ([5]; B16 melanoma cells): 4.3 µg/mL and 9.4 µM

Compound: CC1(C)CC[C@]2(C(=O)O)CC[C@]3(C)C(=CC[C@@H]4[C@@]5(C)C[C@@H](O)[C@H](O)C(C)(C)[C@@H]5CC[C@]43C)[C@@H]2C1 [Compound 7, Maslinic acid]
- viability at 25 μg/ml [1]: 84.4%
- inhibitory activity against TPA-induced Epstein–Barr virus early antigen activation (in words) [2]: significant inhibitory activity
- inhibitory activity against TPA-induced inflammation (in words) [3]: significant inhibitory activity
- inhibitory effect on tyrosinase (in words) (mushroom tyrosinase): no inhibitory effect
- inhibitory activity on tyrosinase (in words) (mushroom tyrosinase): moderate inhibitory activity
- S.I (selectivity index, CC50 value/IC50 value) (B16 melanoma cells [4]): > 1.0
- inhibition at 1 µg/mL (B16 melanoma cells [4]; [7]): 2.8 ± 1.1%
- inhibition at 2.5 µg/mL (B16 melanoma cells [4]; [7]): 12.2 ± 1.9%
- inhibition at 5 µg/mL (B16 melanoma cells [4]; [7]): 47.5 ± 0.4%
- inhibition at 10 µg/mL (B16 melanoma cells [4]; [7]): 54.5 ± 3%
- inhibition at 20 µg/mL (B16 melanoma cells [4]; Mus musculus, 20 μg/ml, B16 cells, read-out: Inhibition rate (100% − melanin synthesis)): 65.1 ± 0.4%
- IC50 (B16 melanoma cells [4]; [8]): 18.5 µM
- IC50 (B16 melanoma cells [4]; [9]): 8.7 µg/mL
- IC50 (RBL-2H3 cells; Rattus norvegicus, RBL-2H3, read-out: IC50 (β-hexosaminidase release), IgE-stimulated RBL-2H3 cells): 22.9 µM
- inhibition at 5 µg/mL (RBL-2H3 cells; [13]): 9.5 ± 6.6%
- inhibition at 12.5 µg/mL (RBL-2H3 cells; [13]): 58.2 ± 3%
- inhibition at 25 µg/mL (RBL-2H3 cells; [13]): 66 ± 2.6%
- IC50 (RBL-2H3 cells; read-out: IC50 (β-hexosaminidase release), IgE-stimulated RBL-2H3 cells): 22.8 µM
- MBC (Propionibacterium acnes): 150 µg/mL (≈ 317 µM)
- MIC (Propionibacterium acnes): 50 µg/mL (≈ 106 µM)
- inhibition at 100 µg/mL (Propionibacterium acnes): 104 ± 3.1%
- activity against P. acnes (in words) (Propionibacterium acnes): active
- CC50 at 72 h [5]: 13.8 µg/mL and 29.3 µM
- Inhibition rate (100% − cell viability) (B16 melanoma cells [6]; 1 μg/ml): 2.5 ± 2.2%
- Inhibition rate (100% − cell viability) (B16 melanoma cells [6]; 2.5 μg/ml): 3.2 ± 4.8%
- Inhibition rate (100% − cell viability) (B16 melanoma cells [6]; 5 μg/ml): 42.2 ± 4.0%
- Inhibition rate (100% − cell viability) (B16 melanoma cells [6]; 10 μg/ml): 44.3 ± 6.4%
- Inhibition rate (100% − cell viability) (B16 melanoma cells [6]; 20 μg/ml): 76.5± 3.0%

Compound: C[C@H]1[C@H](C)CC[C@]2(C(=O)O)CC[C@]3(C)C(=CC[C@@H]4[C@@]5(C)C[C@@H](O)[C@H](O)C(C)(C)[C@@H]5CC[C@]43C)[C@H]12 [Compound 8, Corosolic acid]
- viability at 25 μg/ml [1]: 80.4 ± 1.6%
- S.I (selectivity index, CC50 value/IC50 value) (B16 melanoma cells [4]): 1.4
- inhibition at 1 µg/mL (B16 melanoma cells [4]; [7]): 3.4 ± 5.1%
- inhibition at 2.5 µg/mL (B16 melanoma cells [4]; [7]): 0.5 ± 4.1%
- inhibition at 5 µg/mL (B16 melanoma cells [4]; [7]): 17.4 ± 5.5%
- inhibition at 10 µg/mL (B16 melanoma cells [4]; [7]): 59.8 ± 1.9%
- IC50 (B16 melanoma cells [4]; [8]): 18.7 µM
- IC50 (B16 melanoma cells [4]; [9]): 8.8 µg/mL
- inhibition at 25 µg/mL (RBL-2H3 cells; [10]): 36.1 ± 6.7%
- HA/CV value (hyaluronic acid %/cell viability %) (NHDF-Ad cells; 10 μg/mL): 5.9
- MBC (Propionibacterium acnes; [11]): 100 µg/mL (≈ 212 µM)
- MIC (Propionibacterium acnes; [12]): 50 µg/mL (≈ 106 µM)
- inhibition at 100 µg/mL (Propionibacterium acnes; concentration 100 μg/mL): 105.9 ± 0.4%
- activity against P. acnes (in words) (Propionibacterium acnes): active
- CC50 at 72 h ([5]; B16 melanoma cells): 12.2 µg/mL and 25.8 µM
- Inhibition rate (100% − cell viability) (B16 melanoma cells [6]; 1 μg/ml): 0.0 ± 3.5%
- Inhibition rate (100% − cell viability) (B16 melanoma cells [6]; 2.5 μg/ml): 0.0 ± 3.8%
- Inhibition rate (100% − cell viability) (B16 melanoma cells [6]; 5 μg/ml): 0.3 ± 4.0%
- Inhibition rate (100% − cell viability) (B16 melanoma cells [6]; 10 μg/ml): 39.3 ± 4.7%
- Inhibition rate (100% − cell viability) (B16 melanoma cells [6]; 20 μg/ml): 94.8± 0.3%

Compound: C[C@@H]1CC[C@]2(C(=O)O)CC[C@]3(C)C(=CC[C@@H]4[C@@]5(C)CC[C@H](O)C(C)(C)[C@@H]5CC[C@]43C)[C@@H]2[C@]1(C)O [Compound 10, Pomolic acid]
- viability at 25 μg/ml [1]: 77 ± 5.3%
- S.I (selectivity index, CC50 value/IC50 value) (B16 melanoma cells [4]): 0.8
- inhibition at 1 µg/mL (B16 melanoma cells [4]; [7]): 3.2 ± 8.2%
- inhibition at 2.5 µg/mL (B16 melanoma cells [4]; [7]): 28.4 ± 1.5%
- inhibition at 5 µg/mL (B16 melanoma cells [4]; [7]): 43.9 ± 1.9%
- inhibition at 10 µg/mL (B16 melanoma cells [4]; [7]): 55.8 ± 8.1%
- IC50 (B16 melanoma cells [4]; [8]): 14 µM
- IC50 (B16 melanoma cells [4]; [9]): 6.6 µg/mL
- inhibition at 25 µg/mL (RBL-2H3 cells; [10]): 22.4 ± 1.9%
- HA/CV value (hyaluronic acid %/cell viability %) (NHDF-Ad cells; 10 μg/mL): 5.8
- inhibition at 100 µg/mL (Propionibacterium acnes; concentration 100 μg/mL): 84.4 ± 1.2%
- activity against P. acnes (in words) (Propionibacterium acnes): active
- CC50 at 72 h ([5]; B16 melanoma cells): 4.9 µg/mL and 10.5 µM
- Inhibition rate (100% − cell viability) (B16 melanoma cells [6]; 1 μg/ml): 1.9 ± 5.4%
- Inhibition rate (100% − cell viability) (B16 melanoma cells [6]; 2.5 μg/ml): 0.0 ± 6.1%
- Inhibition rate (100% − cell viability) (B16 melanoma cells [6]; 5 μg/ml): 50.9 ± 4.4%
- Inhibition rate (100% − cell viability) (B16 melanoma cells [6]; 10 μg/ml): 68.4 ± 1.5%
